The subject of series [1] is NClH460 murine xenografts. The following applies: NClH460 murine xenograft; cited from earlier work.
The subject of the next series is HCT116 murine xenografts. The note with it: HCT116 murine xenograft; cited from earlier work.
A further series deals with A549 murine xenografts. The note with it: A549 murine xenograft; cited from earlier work.
For series [2] the following is noted: in man; cited from earlier work.
Another series relates to HCT116 cells. Description: Antiproliferative Assay. The following applies: Homo sapiens, HCT-116, 72 hours, Alamar Blue, n=3, MSR 3.1. It is filed as cell-based. The protocol: The effects of compounds on cell proliferation can be determined using cells and cell proliferation methods well-known in the art (Robert C. Squatrito et al., Gynecological Oncology, 58, 101-105, (1995)). For example, HCT116 cells, which may be obtained from the American Type Culture Collection, may be seeded at ˜2000 cells/well in 96-well plates and allowed to attach overnight in a humidified CO2 incubator at 37° C. Following the 20-24 hour incubation, half-log serially diluted compounds are added and the plates are returned to the incubator. After an appropriate length of exposure (e.g., 72 hours), cell proliferation is estimated using well-known methods. In one method, 10 μL of a tetrazolium salt, such as Alamar Blue™ is added to the cell plates. After an appropriate exposure to the dye, fluorescence (530 nm excitation, 580 nm emission) is determined. The resulting IC50 has an MSR of 3.1.
In general terms: Resazurin is reduced to fluorescent resorufin, in cell work by metabolically active cells.

Another series has as its system HeLa Cells. Description: pHH3(S10), Mitotic Cells, and DNA Content Assays. In kind it is cell-based. The following applies: Homo sapiens, 23 hours exposure. The protocol:
HeLa Cells from the American Type Culture Collection (ATCC) are plated at 200 cells/well in 96 well […] BIOCOAT™ plates, and are incubated in MEM (Minimum Essential Medium, e.g., GIBCO, catalog #11095) with 10% FBS (Fetal Bovine Serum) in 37° C., 5% CO2 for 24 hours. Cells are treated by adding compound (in 0.25% DMSO) to the medium, dosing at 10 points across the range […] to 0.0098 μM. After 23 hours exposure to the compounds, cells are fixed, for example with the PREFER™ fixative [Anatech LTD., Catalog #414] for 30 min then are permeablized with 0.1% TRITON® X100 in phosphate buffered saline (PBS) solution for 15 min. Cells are washed 3 times with PBS then digested with 50 μg/mL RNAse. Primary antibody, phosphohistone H3 (Upstate Cat#06-570), is added at 1:500 in PBS with 1% bovine serum albumin (BSA) to the cells over night at 4° C. After 3 PBS washes, cells are incubated with Alexa488 labeled secondary antibody (Invitrogen cat #A11008) for 1 hour at room temperature. Again they are washed 3 times with PBS, and then 15 μM propidium iodide (Molecular Probes cat #P3566) is added for 30 min to stain nuclei. Fluorescence Plates are scanned with ACUMEN EXPLORER™ [Laser-scanning fluorescence microplate cytometer (comprising of 488 nm argon ion laser excitation and multiple photomultiplier tube detection), manufactured by TTP LABTECH LTD] to measure phosphohistone H3, DNA content and mitotic cells as measured by DNA condensation. Image analysis are based on cellular fluorescent signals for identifying cells in different subpopulations. pHH3(S10) positive cells are identified by mean intensity at 500-530 nm above the threshold. Total intensity at 655-705 nm from propidium iodide/DNA is used to identify individual cells (cells with DNA content from 2N to 4N) and subpopulations in cell cycle (2N cells, 4N cells). Peak intensity at 575-640 nm is used to identify DNA condensation that is used as the marker to identify mitotic cells among 4N cells. […] The ECso is determined by curve fitting to a four parameter logistic for each output using ACTIVITY BASE™.

The target of another series is T1, Plk1 (Homo sapiens, UniProt P53350).
T1 construct: made in house; host or cells: baculovirus-infected Sf9 cells, treated with okadaic acid before harvest; the substrate was made in E. coli BL21
T1 sequence (P53350 whole entry): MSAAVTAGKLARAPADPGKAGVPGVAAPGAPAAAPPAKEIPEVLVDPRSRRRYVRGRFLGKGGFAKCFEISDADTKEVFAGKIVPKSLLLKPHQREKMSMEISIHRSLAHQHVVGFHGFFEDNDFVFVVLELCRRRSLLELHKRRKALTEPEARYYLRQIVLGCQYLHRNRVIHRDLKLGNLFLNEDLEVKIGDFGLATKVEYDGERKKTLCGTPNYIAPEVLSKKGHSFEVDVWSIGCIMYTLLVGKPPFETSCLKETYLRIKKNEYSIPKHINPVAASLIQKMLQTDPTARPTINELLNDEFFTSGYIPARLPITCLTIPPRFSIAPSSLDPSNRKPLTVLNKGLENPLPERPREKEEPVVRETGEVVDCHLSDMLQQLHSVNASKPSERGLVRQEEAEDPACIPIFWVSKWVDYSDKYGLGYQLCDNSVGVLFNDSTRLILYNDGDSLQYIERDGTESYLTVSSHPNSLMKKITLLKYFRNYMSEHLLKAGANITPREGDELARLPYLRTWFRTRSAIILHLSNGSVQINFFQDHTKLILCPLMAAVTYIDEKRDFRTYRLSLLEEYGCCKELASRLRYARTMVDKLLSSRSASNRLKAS
As to the kind of experiment: Plk1 Inhibition Assay. In kind it is biochemical. The note with it: Absolute IC50, 5.0 μM ATP, GST-Cdc25c (1-206) substrate, 60 min; MSR 3.6. The text has this:
Human Plk1 cDNA, which may be obtained from a number of sources, such as Incyte (accession number: NM_005030), may be directly linked at one of its termini with a polynucleotide sequence expressing a His6 tag, such as the C-terminal FLAG-His6 tag, and inserted into an appropriate expression vector, such as a pFastBac™ vector (Invitrogen) and transfected into an appropriate system, such as baculovirus similar to what has been reported by Yue-Wei Qian, et al., Science, 282, 1701 (1998) for xPlkk1. If a viral expression system is used, then the virus (e.g., baculovirus bearing a Plk1-Flag-His6 tag polynucleotide construct) is infected into a culture of a suitable host cell, such as Sf9 cells. […]
Plk1 kinase reactions contain Plk1-Flag-His6 tag fusion enzyme (0.2 ng/μL) in a buffer containing 50 mM HEPES, pH 7.3, 1.0 mM dithiothreitol, 5.0 μM ATP, 10 mM MgCl2, 0.01% TRITON® X-100, 0.4 μCi ^33P-ATP, and 0.06 μg/μL GST-Cdc25c (1-206) peptide. […] Wells are dried before addition of 40 μL of MicroScint™ 20 (Packard) and then counted on a Wallac MICROBETA® Jet. The percentage inhibition values from the 10-point concentration response data are subsequently analyzed, for example, using ACTIVITY BASE™ software (IDBS), using a 4-parameter logistic equation. Absolute IC50 values are calculated from the resulting curve fit.

Like-named read-outs stand apart in the source and are kept apart here. Some results are limits rather than exact numbers.

Regarding `CC[C@@H]1C(=O)N(C)c2cnc(Nc3ccc(C(=O)NC4CCN(C)CC4)cc3OC)nc2N1C1CCCC1` [BI-2536], the “activity in preclinical model” value (in series [1]; in the series with HCT116 murine xenografts; with A549 murine xenografts) was “demonstrated activity” each time. The “clearance (CL)” value in series [2] is more than 1000 mL/min. In addition, in series [2], the dose limiting toxicity entry was “dose limited by myelosupression”.
For `CN(C)Cc1cnc(F)cc1-c1cccc2cc(-c3ccnc(NCCN4CCNC4=O)n3)sc12` [Example 4, 1-(2-{4-[7-(5-((Dimethylamino)methyl)-2-fluoropyridin-4-yl)benzo[b]thiophen-2-yl]pyrimidin-2-ylamino}ethyl)imidazolidin-2-one], the concentration for half-maximal inhibition (IC50) – broadly, the point on the concentration scale where inhibition reaches its midpoint – in the series with HCT116 cells is 44 nM; on Plk1 it was approximately 25 nM. Besides, the half-maximal effective concentration (EC50) (as a rule, the midpoint of the concentration-response curve) in the series with HeLa Cells (n=1, MSR 2.5, read-out: mitotic EC50) stood at 22 nM; in the series with HeLa Cells (n=1, MSR 2.6, read-out: pHH3(s10) EC50) it was 24 nM; in the series on HeLa Cells (n=2, MSR 2.4, read-out: DNA content EC50), 35 nM.
